Columns and labels:
NEP enzyme = target: T1, NEP enzyme (Homo sapiens, UniProt P08473); assay: In vitro NEP enzyme inhibition assay (Assay 2); assay type: biochemical; details: fluorogenic peptide substrate, room temperature; read-out: pIC50 for the NEP enzyme (converted)
T1 construct: purchased R&D Systems, Minneapolis, Minn; 1182-ZN
Procedure: The inhibitory activities of compounds at human and rat NEP and human ACE were determined using in vitro assays as described below.
Rat NEP was prepared from the kidneys of adult Sprague Dawley rats. Whole kidneys were washed in cold PBS and brought up in ice-cold lysis buffer (1% Triton X-114, 150 mM NaCl, 50 mM Tris pH 7.5; Bordier (1981) J. Biol. Chem. 256:1604-1607) in a ratio of 5 mL of buffer for every gram of kidney. Samples were homogenized using a polytron hand held tissue grinder on ice. Homogenates were centrifuged at 1000×g in a swinging bucket rotor for 5 minutes at 3° C. The pellet was resuspended in 20 mL of ice cold lysis buffer and incubated on ice for 30 minutes. […] Protein concentrations were quantitated using a BCA detection system with BSA as a standard. […]
The assays were performed in 384-well white opaque plates at room temperature using the respective fluorogenic peptides at a concentration of 10 μM in Assay Buffer (50 mM Tris/HCl at 25° C., 100 mM NaCl, 0.01% Tween-20, 1 μM Zn, 0.025% BSA). […] The rat NEP enzyme preparation was used at a concentration that yielded quantitative proteolysis of 3 μM of Mca-RRL within 20 minutes at room temperature. […]
Plates were read on a fluorometer with excitation and emission wavelengths set to 320 nm and 405 nm, respectively. […]

human AT1 receptor = target: T2, human AT1 receptor (Homo sapiens, UniProt P30556); assay: AT1 radioligand binding assay (Assay 1); details: displacement of [Eu]AngII, membranes of CHO-K1 cells expressing human AT1 receptor; read-out: pKi at the AT1 receptor (converted)
T2 construct: expressed in transfected cells; membranes
T2 sequence (P30556 1-359): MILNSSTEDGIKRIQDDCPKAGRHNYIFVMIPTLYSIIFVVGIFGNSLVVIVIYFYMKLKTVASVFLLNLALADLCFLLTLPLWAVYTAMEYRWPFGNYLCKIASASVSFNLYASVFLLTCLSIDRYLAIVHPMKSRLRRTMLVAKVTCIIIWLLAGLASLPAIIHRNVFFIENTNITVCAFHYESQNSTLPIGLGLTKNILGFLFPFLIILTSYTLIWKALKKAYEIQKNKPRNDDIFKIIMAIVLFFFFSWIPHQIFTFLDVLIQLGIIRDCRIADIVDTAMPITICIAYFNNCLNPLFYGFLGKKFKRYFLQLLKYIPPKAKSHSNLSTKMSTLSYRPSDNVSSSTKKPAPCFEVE
Procedure: These in vitro assays were used to assess the ability of test compounds to bind to the AT1 and the AT2 receptors.
Chinese hamster ovary (CHO-K1) derived cell lines stably expressing the cloned human AT1 or AT2 receptors, respectively, were grown in HAM's-F12 medium supplemented with 10% fetal bovine serum, 10 μg/ml penicillin/streptomycin, and 500 μg/ml geneticin in a 5% CO2 humidified incubator at 37° C. AT2 receptor expressing cells were grown in the additional presence of 100 nM PD123,319 (AT2 antagonist). When cultures reached 80-95% confluence, the cells were washed thoroughly in PBS and lifted with 5 mM EDTA. Cells were pelleted by centrifugation and snap frozen in MeOH-dry ice and stored at −80° C. until further use.
For membrane preparation, cell pellets were resuspended in lysis buffer (25 mM Tris/HCl pH 7.5 at 4° C., 1 mM EDTA, and one tablet of Complete Protease Inhibitor Cocktail Tablets with 2 mM EDTA per 50 mL buffer (Roche cat. #1697498, Roche Molecular Biochemicals, Indianapolis, Ind.)) and homogenized using a tight-fitting Dounce glass homogenizer (10 strokes) on ice. The homogenate was centrifuged at 1000×g, the supernatant was collected and centrifuged at 20,000×g. […] Protein concentration of the membrane suspension was determined by the method described in Bradford (1976) Anal Biochem. 72:248-54. […]

T1 sequence (P08473 52-750 limits assumed): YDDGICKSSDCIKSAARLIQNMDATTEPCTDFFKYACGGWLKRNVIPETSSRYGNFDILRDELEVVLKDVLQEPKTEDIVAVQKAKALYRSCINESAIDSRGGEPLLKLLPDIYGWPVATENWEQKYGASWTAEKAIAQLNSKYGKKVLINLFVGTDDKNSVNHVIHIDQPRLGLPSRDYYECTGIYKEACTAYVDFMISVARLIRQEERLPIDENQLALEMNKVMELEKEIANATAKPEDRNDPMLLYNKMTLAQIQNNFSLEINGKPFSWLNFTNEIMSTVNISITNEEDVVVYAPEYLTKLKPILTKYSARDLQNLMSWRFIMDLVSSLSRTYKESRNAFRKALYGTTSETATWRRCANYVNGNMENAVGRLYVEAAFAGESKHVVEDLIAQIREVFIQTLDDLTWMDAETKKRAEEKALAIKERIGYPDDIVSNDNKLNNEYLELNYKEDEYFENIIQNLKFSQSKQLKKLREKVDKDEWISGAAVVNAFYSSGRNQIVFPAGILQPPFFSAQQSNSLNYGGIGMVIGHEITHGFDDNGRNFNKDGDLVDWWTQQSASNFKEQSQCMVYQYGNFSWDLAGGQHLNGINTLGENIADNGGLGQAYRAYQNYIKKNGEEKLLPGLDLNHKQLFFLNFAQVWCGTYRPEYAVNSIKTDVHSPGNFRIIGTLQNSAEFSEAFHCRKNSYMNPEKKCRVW

CCCCc1nc(Cl)c(CO)n1Cc1ccc(-c2ccccc2S(=O)(=O)NC(=O)CNC(=O)C(Cc2ccccc2)C(=O)NO)cc1 (centres unmarked) [Example 1, 2-Benzyl-N-{2-[4′-(2-butyl-4-chloro-5-hydroxymethylimidazol-1-ylmethyl)biphenyl-2-sulfonylamino]-2-oxoethyl}-N′-hydroxymalonamide.(C2HF3O2)]
IC50 (NEP enzyme): ≤ 100 nM | Ki (human AT1 receptor): < 100 nM

From US8227497B2, “Dual-acting antihypertensive agents” (Theravance, Inc., priority 2008, dated 2012)
